Target: T1, MAGL (Homo sapiens, UniProt Q99685)
T1 sequence (Q99685 1-303): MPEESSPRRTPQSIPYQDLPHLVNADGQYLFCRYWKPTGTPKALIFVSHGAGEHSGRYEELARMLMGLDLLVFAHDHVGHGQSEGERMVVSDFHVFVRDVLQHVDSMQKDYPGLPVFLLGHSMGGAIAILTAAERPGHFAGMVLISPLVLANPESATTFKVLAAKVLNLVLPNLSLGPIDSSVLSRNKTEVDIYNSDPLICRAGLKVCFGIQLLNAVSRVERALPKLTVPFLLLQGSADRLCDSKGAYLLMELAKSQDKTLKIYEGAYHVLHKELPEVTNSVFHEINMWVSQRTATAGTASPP
Assay: MAGL inhibition, 2-AG assay (hydrolysis of 2-arachidonoylglycerol, arachidonic acid by mass spectrometry)
Assay type: biochemical
Conditions: 2-AG assay (footnote [b])
In short: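 Hydrolysis of 8 μM 2-arachidonoylglycerol by […] was run for 30 min at RT after a 15 min compound preincubation, in Tris/EDTA/Tween buffer. Test compounds spanned […]. The product was measured by online SPE-MS/MS (transitions 303.1→259.1 and 311.1→267.0), and activity was derived from the arachidonic acid/d8-arachidonic acid signal ratio.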

| Compound | IC50 |
| --- | --- |
| CC(OC1CN(C(=O)N2CC[C@@H]3OCC(=O)N[C@@H]3C2)C1)c1ccc(F)cc1Cl (single isomer, unassigned) [Example 117, (4aR,8aS)-6-[3-(R or S)-[1-(2-Chloro-4-fluoro-phenyl)ethoxy]azetidine-1-carbonyl]-4,4a,5,7,8,8a-hexahydropyrido[4,3-b][1,4]oxazin-3-one] | 30 nM |
| O=C1CO[C@H]2CCN(C(=O)N3CC(N4Cc5cccc(Cl)c5C4)C3)C[C@H]2N1 [Example 266, (4aR,8aS)-6-[3-(4-Chloroisoindolin-2-yl)azetidine-1-carbonyl]-4,4a,5,7,8,8a-hexahydropyrido[4,3-b][1,4]oxazin-3-one] | 457 nM |
| O=C1CO[C@H]2CCN(C(=O)N3CCC(c4cccc(OC(F)(F)F)c4)C3)C[C@H]2N1 (single isomer, unassigned) [Example 221, (4aR,8aS)-6-[3-(S or R)-[3-(Trifluoromethoxy)phenyl]pyrrolidine-1-carbonyl]-4,4a,5,7,8,8a-hexahydropyrido[4,3-b][1,4]oxazin-3-one] | 178 nM |
| O=C1CO[C@H]2CCN(C(=O)N3CC(C(O)(c4ccc(F)cc4)c4ccc(F)cc4)C3)C[C@H]2N1 [Example 54, (4aR,8aS)-6-(3-(Bis(4-fluorophenyl)(hydroxy)methyl)azetidine-1-carbonyl)hexahydro-2H-pyrido[4,3-b][1,4]oxazin-3(4H)-one] | 804 nM |
| O=C1CO[C@H]2CCN(C(=O)N3CC(c4ccc(N5CC(F)(F)C5)cc4)C3)C[C@H]2N1 [Example 156, (4aR,8aS)-6-(3-(4-(3,3-Difluoroazetidin-1-yl)phenyl)azetidine-1-carbonyl)hexahydro-2H-pyrido[4,3-b][1,4]oxazin-3(4H)-one] | 24 nM |
| O=C1CO[C@H]2CCN(C(=O)N3CCC(C4(c5ccc(C(F)(F)F)cc5)CC4)CC3)C[C@H]2N1 [Example 52, (4aR,8aS)-6-(4-(1-(4-(Trifluoromethyl)phenyl)cyclopropyl)piperidine-1-carbonyl)hexahydro-2H-pyrido[4,3-b][1,4]oxazin-3(4H)-one] | 21 nM |
| O=C1CO[C@H]2CCN(C(=O)N3CCC(c4cc(Cl)cc(OCC(F)(F)F)c4)C3)C[C@H]2N1 (single isomer, unassigned) [Example 239, (4aR,8aS)-6-((S or R)-3-(3-Chloro-5-(2,2,2-trifluoroethoxy)phenyl)pyrrolidine-1-carbonyl)hexahydro-2H-pyrido[4,3-b][1,4]oxazin-3(4H)-one] | 39 nM |
| CS(=O)(=O)c1cccc(C(c2cccnc2)C2CCN(C(=O)N3CC[C@@H]4OCC(=O)N[C@@H]4C3)CC2)c1 (single isomer, unassigned) [Example 176, (4aR,8aS)-6-[4-[(R or S)-(3-methylsulfonylphenyl)-(3-pyridyl)methyl]piperidine-1-carbonyl]-4,4a,5,7,8,8a-hexahydropyrido[4,3-b][1,4]oxazin-3-one] | 170 nM |
| O=C1CO[C@H]2CCN(C(=O)N3CC(c4ccc(C(F)(F)F)c(F)c4)C3)C[C@H]2N1 [Example 254] | 82 nM |
| N#Cc1cc(C2CN(C(=O)N3CC[C@@H]4OCC(=O)N[C@@H]4C3)C2)ccc1OC(F)(F)F [Example 213, 5-(1-((4aR,8aS)-3-Oxooctahydro-2H-pyrido[4,3-b][1,4]oxazine-6-carbonyl)azetidin-3-yl)-2-(trifluoromethoxy)benzonitrile] | 114 nM |
| O=C1CO[C@H]2CCN(C(=O)N3CCC(c4cc(Cl)cc(OCC(F)(F)F)c4)C3)C[C@H]2N1 (stereo partly drawn) [Example 233, (4aR,8aS)-6-(3-(3-Chloro-5-(2,2,2-trifluoroethoxy)phenyl)pyrrolidine-1-carbonyl)hexahydro-2H-pyrido[4,3-b][1,4]oxazin-3(4H)-one] | 61 nM |
| O=C1CO[C@H]2CCN(C(=O)N3CC(c4ccc(C(F)(F)F)cc4F)C3)C[C@H]2N1 [Example 210, (4aR,8aS)-6-(3-(2-Fluoro-4-(trifluoromethyl)phenyl)azetidine-1-carbonyl)hexahydro-2H-pyrido[4,3-b][1,4]oxazin-3(4H)-one] | 112 nM |

Stronger by IC50, values ahead:

| IC50 | Compound |
| --- | --- |
| 0.2 nM | O=C1CO[C@H]2CCN(C(=O)N3CCC(C(c4ccccc4)c4ccc(F)cc4)CC3)C[C@H]2N1 (single isomer, unassigned) [Example 68, (4aR,8aS)-6-(4-((S or R)-(4-Fluorophenyl)(phenyl)methyl)piperidine-1-carbonyl)hexahydro-2H-pyrido[4,3-b][1,4]oxazin-3(4H)-one] |
| 17 nM | O=C1CO[C@H]2CCN(C(=O)N3CC(c4ccc(N5CCC(C(F)(F)F)C5)cn4)C3)C[C@H]2N1 (single isomer, unassigned) [Example 272, (4aR,8aS)-6-(3-(5-((S or R)-3-(Trifluoromethyl)pyrrolidin-1-yl)pyridin-2-yl)azetidine-1-carbonyl)hexahydro-2H-pyrido[4,3-b][1,4]oxazin-3(4H)-one] |
| 4 nM | NC(=O)c1ccccc1-c1ccc(C2CN(C(=O)N3CC[C@@H]4OCC(=O)N[C@@H]4C3)C2)cc1 [Example 130, 2-[4-[1-[(4aR,8aS)-3-Oxo-4,4a,5,7,8,8a-hexahydropyrido[4,3-b][1,4]oxazine-6-carbonyl]azetidin-3-yl]phenyl]benzamide] |
| 0.2 nM | O=C1CO[C@H]2CCN(C(=O)N3CC(c4ccc(N5CCCC5C5CC5)cc4)C3)C[C@H]2N1 (stereo partly drawn) [Example 167, (4aR,8aS)-6-(3-(4-(2-Cyclopropylpyrrolidin-1-yl)phenyl)azetidine-1-carbonyl)hexahydro-2H-pyrido[4,3-b][1,4]oxazin-3(4H)-one] |
| 1 nM | CC(C)(OC1CN(c2ccc(C3CN(C(=O)N4CC[C@@H]5OCC(=O)N[C@@H]5C4)C3)cc2)C1)C(F)(F)F [Example 147, (4aR,8aS)-6-(3-(4-(3-((1,1,1-Trifluoro-2-methylpropan-2-yl)oxy)azetidin-1-yl)phenyl)azetidine-1-carbonyl)hexahydro-2H-pyrido[4,3-b][1,4]oxazin-3(4H)-one] |
| 0.7 nM | O=C1CO[C@H]2CCN(C(=O)N3CC(c4ccc(N5CCC(C(F)(F)F)C5)cc4)C3)C[C@H]2N1 (stereo partly drawn) [Example 163, (4aR,8aS)-6-(3-(4-(3-(Trifluoromethyl)pyrrolidin-1-yl)phenyl)azetidine-1-carbonyl)hexahydro-2H-pyrido[4,3-b][1,4]oxazin-3(4H)-one] |
| 0.8 nM | Cc1cc(C2CN(C(=O)N3CC[C@@H]4OCC(=O)N[C@@H]4C3)C2)ccc1OC(F)(F)F [Example 203, (4aR,8aS)-6-(3-(3-Methyl-4-(trifluoromethoxy)phenyl)azetidine-1-carbonyl)hexahydro-2H-pyrido[4,3-b][1,4]oxazin-3(4H)-one] |
| 7 nM | O=C1CO[C@H]2CCN(C(=O)N3CC(c4ccc(OC(F)(F)F)cc4)C3)C[C@H]2N1 [Example 120, (4aR,8aS)-6-[3-[4-(Trifluoromethoxy)phenyl]azetidine-1-carbonyl]-4,4a,5,7,8,8a-hexahydropyrido[4,3-b][1,4]oxazin-3-one] |
| 4 nM | O=C1CO[C@H]2CCN(C(=O)N3CCC(c4ccc(-c5ccc(Cl)cc5Cl)cc4)CC3)C[C@H]2N1 [Example 169, (4aR,8aS)-6-(4-(2′,4′-Dichloro-[1,1′-biphenyl]-4-yl)piperidine-1-carbonyl)hexahydro-2H-pyrido[4,3-b][1,4]oxazin-3(4H)-one] |
